Measurements taken from paper PMC2947747 (Chembiochem : a European journal of chemical biology, 2008).

What was measured:
Experiment in all cases: reverse glycosyl transfer
Format in all cases: biochemical
Details in all cases: 1 mM GDP, 1 mM MgCl2, pH 8.0, 30 °C; reverse reaction
NysDI = NysDI (Streptomyces noursei, UniProt Q9L4W6)
AmphDI = AmphDI (Streptomyces nodosus, UniProt Q93NW9)
NysDI-T2 = NysDI-T2 (Streptomyces noursei, UniProt Q9L4W6)

C[C@@H]1[C@H](O)[C@@H](C)/C=C/C=C/C=C/C=C/C=C/C=C/C=C/[C@H](O[C@@H]2O[C@H](C)[C@@H](O)[C@H](N)[C@@H]2O)C[C@@H]2O[C@](O)(C[C@@H](O)C[C@@H](O)[C@H](O)CC[C@@H](O)C[C@@H](O)CC(=O)O[C@H]1C)C[C@H](O)[C@H]2C(=O)O [compound 1, amphotericin B]
reverse glycosyl transfer (deglycosylation), RP-HPLC (NysDI): reaction reversibility assessed in the presence of AmphDI, NysDI and NysDI-T2 | reverse glycosyl transfer (deglycosylation), RP-HPLC (AmphDI): reaction reversibility assessed in the presence of AmphDI, NysDI and NysDI-T2 | reverse glycosyl transfer (deglycosylation), RP-HPLC (NysDI-T2): reaction reversibility assessed in the presence of AmphDI, NysDI and NysDI-T2
